# In patent US8512965B2, “Methods of identifying ligands to sour-taste receptors comprising PKD1L3 and PKDPKD2L1” (Duke University, priority 2006, dated 2013):
# How the values were obtained:
# PKD1L3/PKD2L1 = molecular target: T1, PKD1L3/PKD2L1 (Mus musculus, UniProt A2A259+Q2EG98, I1053S/I114V/I482V/L203V/Q202H/Y438D); test: Calcium imaging (fluo-4/fura-red) of HEK293T cells transiently co-expressing PKD1L3 and PKD2L1; format: cell-based, murine; details: for calcium response upon stimulation: pH 2.6
# T1 construct: HA (N); expressed in transfected cells; host or cells: HEK293T
# [1] = at the same pH (Ganzevles and Kroeze, 1987; Makhlouf and Bum, 1972); cited from earlier work
# [2] = system: either PKD1L3 or PKD2L1, or neither of them; test: Calcium imaging of HEK293T cells expressing PKD1L3 or PKD2L1 alone, or neither; format: cell-based, murine; details: treated with citric acid
# taste cells = details: cited from earlier work
# [3] = cells expressing both PKD1L3 and PKD2L1, citric acid 25 mM, hydrochloric acid at the same pH
# T1 sequence (Q2EG98 21-2151 I1053S): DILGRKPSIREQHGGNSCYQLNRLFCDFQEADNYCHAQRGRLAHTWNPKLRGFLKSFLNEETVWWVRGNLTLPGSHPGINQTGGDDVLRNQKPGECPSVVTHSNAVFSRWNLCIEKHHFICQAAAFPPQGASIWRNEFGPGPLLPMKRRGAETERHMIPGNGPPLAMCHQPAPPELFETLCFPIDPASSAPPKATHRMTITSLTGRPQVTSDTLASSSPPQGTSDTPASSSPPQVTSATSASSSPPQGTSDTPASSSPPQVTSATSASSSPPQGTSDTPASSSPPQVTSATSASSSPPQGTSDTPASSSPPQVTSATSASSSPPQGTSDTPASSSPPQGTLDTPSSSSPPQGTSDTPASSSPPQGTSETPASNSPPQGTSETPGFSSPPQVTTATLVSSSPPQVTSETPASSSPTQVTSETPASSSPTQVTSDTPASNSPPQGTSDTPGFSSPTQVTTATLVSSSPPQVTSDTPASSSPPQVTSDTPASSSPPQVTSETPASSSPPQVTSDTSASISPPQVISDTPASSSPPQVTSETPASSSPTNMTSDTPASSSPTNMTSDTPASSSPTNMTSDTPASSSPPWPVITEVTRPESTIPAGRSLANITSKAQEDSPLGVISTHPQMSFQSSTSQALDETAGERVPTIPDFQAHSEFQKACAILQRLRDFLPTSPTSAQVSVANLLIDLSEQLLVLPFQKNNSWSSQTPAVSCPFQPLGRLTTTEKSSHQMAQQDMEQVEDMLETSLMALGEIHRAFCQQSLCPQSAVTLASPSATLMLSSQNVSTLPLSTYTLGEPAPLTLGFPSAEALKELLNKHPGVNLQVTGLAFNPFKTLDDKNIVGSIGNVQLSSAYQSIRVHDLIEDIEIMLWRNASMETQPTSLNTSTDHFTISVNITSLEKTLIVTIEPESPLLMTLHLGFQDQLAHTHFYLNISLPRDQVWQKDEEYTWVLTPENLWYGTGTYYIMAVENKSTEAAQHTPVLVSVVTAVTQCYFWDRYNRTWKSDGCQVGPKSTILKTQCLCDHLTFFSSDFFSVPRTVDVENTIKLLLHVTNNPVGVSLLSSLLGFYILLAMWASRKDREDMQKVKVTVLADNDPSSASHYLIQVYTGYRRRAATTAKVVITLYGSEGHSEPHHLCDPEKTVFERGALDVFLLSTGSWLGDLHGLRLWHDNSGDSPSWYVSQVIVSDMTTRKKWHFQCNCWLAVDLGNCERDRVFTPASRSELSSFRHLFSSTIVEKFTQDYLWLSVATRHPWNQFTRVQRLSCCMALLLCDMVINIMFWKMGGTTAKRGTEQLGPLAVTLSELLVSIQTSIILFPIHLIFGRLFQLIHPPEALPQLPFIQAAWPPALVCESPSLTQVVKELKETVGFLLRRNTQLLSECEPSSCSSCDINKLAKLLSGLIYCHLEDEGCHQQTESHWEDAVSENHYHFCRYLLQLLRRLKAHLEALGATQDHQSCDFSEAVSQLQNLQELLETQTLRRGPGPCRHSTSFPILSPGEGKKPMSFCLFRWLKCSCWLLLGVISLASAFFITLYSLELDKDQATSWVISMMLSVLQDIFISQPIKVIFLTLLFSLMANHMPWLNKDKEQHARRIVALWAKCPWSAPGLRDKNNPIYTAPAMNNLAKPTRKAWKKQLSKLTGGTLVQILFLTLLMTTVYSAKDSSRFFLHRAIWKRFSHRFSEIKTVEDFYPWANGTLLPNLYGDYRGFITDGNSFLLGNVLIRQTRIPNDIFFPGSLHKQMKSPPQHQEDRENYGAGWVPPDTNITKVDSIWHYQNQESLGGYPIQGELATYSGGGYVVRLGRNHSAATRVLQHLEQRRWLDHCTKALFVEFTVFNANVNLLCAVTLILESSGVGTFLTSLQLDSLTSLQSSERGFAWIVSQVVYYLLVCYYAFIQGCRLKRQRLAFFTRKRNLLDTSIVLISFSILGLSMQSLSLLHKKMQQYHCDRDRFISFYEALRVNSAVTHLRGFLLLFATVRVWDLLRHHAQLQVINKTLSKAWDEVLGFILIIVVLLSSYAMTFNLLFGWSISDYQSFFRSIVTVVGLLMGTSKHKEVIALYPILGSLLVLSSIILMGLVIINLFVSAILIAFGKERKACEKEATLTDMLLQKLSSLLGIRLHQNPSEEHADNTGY
# T1 sequence (A2A259 whole entry I114V/Q202H/L203V/Y438D/I482V): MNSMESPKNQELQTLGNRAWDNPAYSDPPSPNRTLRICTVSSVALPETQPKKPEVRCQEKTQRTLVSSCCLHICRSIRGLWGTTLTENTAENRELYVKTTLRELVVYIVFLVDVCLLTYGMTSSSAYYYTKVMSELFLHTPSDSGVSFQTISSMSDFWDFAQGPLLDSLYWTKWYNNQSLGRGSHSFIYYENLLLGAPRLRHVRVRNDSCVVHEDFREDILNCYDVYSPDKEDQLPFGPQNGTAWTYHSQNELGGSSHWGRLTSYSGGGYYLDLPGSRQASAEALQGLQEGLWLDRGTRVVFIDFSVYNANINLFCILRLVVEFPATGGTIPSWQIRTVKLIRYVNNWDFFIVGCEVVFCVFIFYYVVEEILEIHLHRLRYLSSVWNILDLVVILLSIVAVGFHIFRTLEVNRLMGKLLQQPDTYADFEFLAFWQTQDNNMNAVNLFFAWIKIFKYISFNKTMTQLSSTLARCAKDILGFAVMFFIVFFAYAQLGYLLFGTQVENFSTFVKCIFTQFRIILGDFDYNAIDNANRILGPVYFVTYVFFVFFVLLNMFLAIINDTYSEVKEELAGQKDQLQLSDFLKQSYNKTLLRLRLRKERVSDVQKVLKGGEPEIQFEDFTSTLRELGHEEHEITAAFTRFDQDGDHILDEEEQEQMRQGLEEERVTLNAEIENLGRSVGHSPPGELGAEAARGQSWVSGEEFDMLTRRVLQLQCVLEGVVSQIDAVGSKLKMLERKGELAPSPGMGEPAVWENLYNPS
smiles,measurement,setting,value
[Cl-].[Na+] [NaCl],calcium response upon stimulation,PKD1L3/PKD2L1,did not respond
CC(=O)O [acetic acid],sour taste relative to hydrochloric acid,[1],more sour than hydrochloric acid
N=C(N)NC(=O)c1nc(Cl)c(N)nc1N [amiloride],inhibition of function of the two protein heteromer,PKD1L3/PKD2L1; ASIC inhibitor / HCN inhibitor applied,not inhibited
O=C(O)CC(O)(CC(=O)O)C(=O)O [citric acid],calcium response upon stimulation,[2],little or no calcium response
same,sour taste relative to hydrochloric acid,[1],more sour than hydrochloric acid
same,taste cells activated,"taste cells; calcium imaging of taste bud slices (Caicedo et al., 2002; Richter et al., 2003)",23-25%
same,potency as sour ligand relative to hydrochloric acid,"taste cells; mouse taste tissue slices, same pH (Richter et al., 2003)",more potent sour ligand than hydrochloric acid
same,potency in activating PKD1L3/PKD2L1 heteromers relative to hydrochloric acid,PKD1L3/PKD2L1; at the same pH,more potent than hydrochloric acid
same,calcium response upon stimulation,PKD1L3/PKD2L1; [3],responded
same,calcium response with extracellular calcium ions eliminated from the bath solution,"PKD1L3/PKD2L1; cells expressing both proteins, no extracellular calcium",abolished
C[C@@H]1C[C@@H]([C@H](O)CC2CC(=O)NC(=O)C2)C(=O)[C@@H](C)C1 [cyclohexamide],calcium response upon stimulation,PKD1L3/PKD2L1,did not respond
Cl [hydrochloric acid],calcium response upon stimulation,PKD1L3/PKD2L1,much less of a calcium response
C=C[C@H]1C[N@@]2CC[C@H]1C[C@H]2[C@H](O)c1ccnc2ccc(OC)cc12 [quinine],calcium response upon stimulation,PKD1L3/PKD2L1; [3],did not respond
O=C1NS(=O)(=O)c2ccccc21 [saccharin],calcium response upon stimulation,PKD1L3/PKD2L1; [3],did not respond
OC[C@H]1O[C@@](CO)(O[C@H]2O[C@H](CO)[C@@H](O)[C@H](O)[C@H]2O)[C@@H](O)[C@@H]1O [sucrose],calcium response upon stimulation,PKD1L3/PKD2L1; [3],did not respond
